Reference: patent publication US20260365692A1, “COMPOSITIONS COMPRISING PROTEINS DISSOLVED IN FLUORINATED SOLVENTS, AND METHODS OF MAKING AND USING THE SAME” (priority 2022, published 2026)

Experiments:
transferrin = transferrin (Bos taurus, UniProt Q29443); assay: Circular dichroism with PFNA, transferrin; design: species or system bovine
Text: (§1) FIGS. 14A-14L depict circular dichroism spectra of Hb (FIG. 14A), GFP (FIG. 14B), BSA (FIG. 14C), β-Gal (FIG. 14D), rabbit serum IgG (FIG. 14E), transferrin (FIG. 14F), and urease (FIG. 14G) in the absence (black line) or presence (dashed lines) of PFNA. Increasing dash sequence indicated higher concentration of PFNA. FIG. 14H: Change in molar ellipticity at 216 nm (Δθ216) of PFNA-treated proteins, relative to native controls, as a function of increasing ligand concentration. FIG. 14I: Percentage change in secondary structural motifs of Hb, β-Gal and IgG between the native protein and 1 mM PFNA treated samples. β-sheet structures were further differentiated into parallel and antiparallel conformations. Hb, β-Gal and IgG were prioritized for analysis based on their significant spectral shift in the presence of 1 mM PFNA. FIGS. 14J-14L: Sensograms for BSA (FIG. 14J), β-gal (FIG. 14K), and IgG (FIG. 14L) showing relative response (R.U.) at 10, 25, 50, 75, and 100 μM.
(§2) To explore PFNA-mediated changes in protein structure, dose-response circular dichroism (CD) studies were performed (FIG. 14A-14G). […] Remarkably, these structural changes endured even at sub-stoichiometric PFNA:protein ratios (see 0.001 mM PFNA in […]; protein concentration was constant at 0.01 mM).

[1] = system: bovine serum albumin (BSA), β-Galactosidase (β-Gal), rabbit serum immunoglobulin (IgG), and bovine trypsin; assay: Dispersion efficiency of four model proteins in PFOc (Example 4); type: physicochemical; conditions: PD:protein molar ratio 1000:1
Experimental: These compounds were screened to evaluate their ability to disperse four model proteins, bovine serum albumin (BSA), β-Galactosidase (β-Gal), rabbit serum immunoglobulin (IgG), and bovine trypsin into the PFOc solvent. […] […] The samples were then briefly vortexed/sonicated then constantly mixed overnight to ensure proper fluorine dispersion. After that, samples were centrifuged at 1950 g for 5 minutes to remove non-dispersed portion, and 100 μL supernatant of dispersed protein sample was transferred into each well of 96-well plate. PFHx solvent was let evaporate at 37 °C for two hours. The remaining protein residue was redissolved in […] PBS, and an equal volume of Coomassie solution was added to the sample. In addition, protein prepared in PBS and PFHx (without PFNA) were also identically processed and included as positive and negative control. Lastly, the amount of protein was quantified by taking absorbance of converted Coomassie solution at 595 nm. Dispersion efficiency was calculated as follows:

urease = assay: Circular dichroism with PFNA, urease
Text: as §1, §2

[2] = system: green fluorescent protein (GFP); assay: Circular dichroism with PFNA, GFP; conditions: increasing PFNA concentration
Text: as §1, §2

A549 cells = assay: Protein uptake in A549 cells, Cy5-labeled BSA; type: cell-based, human; conditions: PFNA
Experimental: FIGS. 18A-18B depict the uptake of Cy5-labeled BSA in human lung A549 cells after 2 and 24 hours of incubation in the absence/presence of PFNA. Results are shown in relative fluorescence units (RFU).
Multiplexed in vitro assays were employed to probe the influence of PFNA interactions on protein uptake and transport in cells. A549 and PC9 human lung cells were prioritized for these assays given that pulmonary tissue is a primary site of perfluoroalkyl bioaccumulation in humans (Reference: 63). Before initiating experiments, cellular toxicity assays established a maximum tolerated dose of PFNA to avoid confounding protein transport experiments with substantive cell death. Protein uptake was then studied using green fluorescent protein (GFP) and bovine serum albumin (BSACy5) as model biologics that employ non-specific pinocytic mechanisms for cellular entry.

BSA [3] = target: T1, BSA (Bos taurus, UniProt P02769); assay: 1H and 19F NMR of dispersant:BSA complex; type: binding, bovine
Experimental: FIG. 43 depicts a superimposed ^1H NMR spectra of PD-7 (60 mM) and PD-7:BSA (1000:1 molar ratio) complex.
FIG. 44 depicts a superimposed ^1H NMR spectra of PD-2 (60 mM) and PD-2:BSA (1000:1 molar ratio) complex.
FIG. 45 depicts the change in ^1H (—COOH) and ^19F (—CF3) NMR chemical shift (Δδ) for PD-2 (grey) and PD-7 (black) following coordination with the BSA protein.
1H NMR and 19F NMR spectroscopy were employed to examine the biophysical interactions between BSA and PD-7 in the fluorous solvent. 60 mM PFNA solution in PFOc was aliquoted into lyophilized BSA stocks to achieve 1000:1 PFNA/BSA molar ratio then transferred to thin wall precision tube with Norell Coaxial inserts containing D2O as locking solvent. NMR spectra were collected on a Bruker NEO-400, equipped with a double resonance broadband observe iProbe (capable of automatic tuning and matching) for 1H and 19F nuclei observation. […] This is a 7-fold change in chemical shift relative to PD-7:BSA (FIG. 45).

BSA [4] = target: T1, BSA; assay: 19F NMR of PFNA with BSA; type: binding, bovine
Text: This further supported the conclusion that, like TFE, adsorption of PFNA to protein surfaces aligned the fluorinated tail parallel to the solvent accessible exterior, with further stabilization via F . . . H bonding with surface N—H groups (FIG. 12, FIGS. 12A-12E, and FIG. 13). This ultimately generated the fluorine rich coating that altered water accessibility and promoted secondary structure.

[5] = Pharmacokinetics of β-Gal in C57BL/6J mice (Example 3); type: in vivo; conditions: i.v. tail vein
Experimental: Two groups (n=5) of C57BL/6J mice received […] of 10 μM solutions of β-Gal that was either 1) prepared in sterile PBS or 2) dissolved in PFOc (1 mM PFNA) and extracted into sterile PBS. Due to the large solution volumes given (150 μL, ~15% of mouse blood volume), PFOc dispersed proteins were extracted into sterile saline before injection to avoid hyponatremia. Samples were administered by tail vein injection.
At a series of time points, mice were sacrificed, and blood samples collected via cardiac puncture. Bioactivity and bioavailability of β-Gal was determined by conversion of the fluorescent substrate, 4-Methylumbelliferyl-[…] (β-GAL). Whole blood collected in a serum tube was centrifuged at 2000 rcf for 4 minutes to extract serum containing β-Gal protein. 20 μL of the serum was then mixed with 180 μL μ-GAL (for a final substrate concentration of 1 μM). Samples were quickly pipette mixed and incubated in the dark at room temperature for 5 minutes. Fluorescent intensity was measured with λex=360 nm and λem=440 nm. The background fluorescent intensity from serum was determined from serum dilution in PBS without μ-GAL substrate.

[6] = presence of BSA, 1000:1 molar ratio, in PFOc

T1 sequence (P02769 25-607): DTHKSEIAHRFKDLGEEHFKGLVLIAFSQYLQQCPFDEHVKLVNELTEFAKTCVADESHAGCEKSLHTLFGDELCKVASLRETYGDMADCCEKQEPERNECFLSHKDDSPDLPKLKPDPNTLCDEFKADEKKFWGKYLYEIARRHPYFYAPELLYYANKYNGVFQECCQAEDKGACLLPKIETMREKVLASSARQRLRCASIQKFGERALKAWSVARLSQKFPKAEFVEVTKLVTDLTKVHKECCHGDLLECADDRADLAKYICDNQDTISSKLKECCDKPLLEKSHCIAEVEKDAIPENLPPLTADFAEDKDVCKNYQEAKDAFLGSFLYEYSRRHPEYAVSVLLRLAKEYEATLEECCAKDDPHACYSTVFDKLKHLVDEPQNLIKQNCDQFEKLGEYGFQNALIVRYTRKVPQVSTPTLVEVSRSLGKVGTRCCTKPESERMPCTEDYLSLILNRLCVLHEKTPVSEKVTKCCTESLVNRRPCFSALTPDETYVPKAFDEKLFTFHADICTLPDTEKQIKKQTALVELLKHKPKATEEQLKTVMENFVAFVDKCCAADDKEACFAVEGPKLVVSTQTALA
Sequence of transferrin (Q29443 20-704): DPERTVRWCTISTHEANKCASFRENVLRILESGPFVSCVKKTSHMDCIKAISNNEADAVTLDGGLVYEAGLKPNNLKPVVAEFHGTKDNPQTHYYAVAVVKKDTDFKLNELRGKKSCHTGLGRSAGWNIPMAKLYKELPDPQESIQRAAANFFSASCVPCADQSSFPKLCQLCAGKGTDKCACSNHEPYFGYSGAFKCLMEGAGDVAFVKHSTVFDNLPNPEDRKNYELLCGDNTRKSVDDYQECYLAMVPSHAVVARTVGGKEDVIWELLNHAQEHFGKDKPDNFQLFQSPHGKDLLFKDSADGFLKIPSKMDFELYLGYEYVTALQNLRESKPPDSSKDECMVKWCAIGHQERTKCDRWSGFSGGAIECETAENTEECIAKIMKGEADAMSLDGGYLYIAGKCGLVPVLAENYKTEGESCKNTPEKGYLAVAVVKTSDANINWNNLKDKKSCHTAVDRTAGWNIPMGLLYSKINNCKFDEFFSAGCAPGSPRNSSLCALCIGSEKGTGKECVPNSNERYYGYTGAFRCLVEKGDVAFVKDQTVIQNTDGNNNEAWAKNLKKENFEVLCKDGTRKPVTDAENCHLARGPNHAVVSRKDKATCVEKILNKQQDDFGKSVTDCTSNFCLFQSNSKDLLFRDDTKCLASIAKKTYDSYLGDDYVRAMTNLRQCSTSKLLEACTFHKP

Compound	CD structural profile, transferrin (transferrin)	dispersion efficiency [1]	CD structural profile, urease (urease)	CD structural change, GFP (θ216 nm) [2]	BSA internalization (A549 cells)	change in chemical shift relative to PD-7:BSA (BSA [3]; 1H —COOH, PD-2 vs PD-7)	change in chemical shift of CF3 (Δδ, 19F NMR) (BSA [3]; [6])	downfield shift of —COOH hydrogen (1H NMR) (BSA [3]; [6])	19F NMR peak change upon interaction (BSA [4])	serum half-life t1/2 ([5]; native β-Gal administered in saline)	serum half-life t1/2 ([5]; β-Gal delivered from PFOc dispersion (1 mM PFNA), extracted into saline)
O=C(O)C(F)(F)C(F)(F)C(F)(F)C(F)(F)C(F)(F)C(F)(F)C(F)(F)C(F)(F)F [Compound 7, perfluoronanonic acid]	remained largely unchanged	≤ 50%	remained largely unchanged	slight enhancement of β-sheet structure	less affected	7 fold	0.006 ppm	0.56 ppm	broadening of PFNA's peaks	–	–
β-Gal: β-Galactosidase (β-Gal), dissolved in PBS/saline or dispersed in PFOc	–	–	–	–	–	–	–	–	–	6.6 min	7.9 min
